Reference: PubChem BioAssay (NCI)
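In this assay, cells in 96-well plates receive the compound at five concentrations for 48 hours. Endpoints are linearly interpolated between the surrounding concentrations. The concentration for 50% growth inhibition is given as GI50. At the TGI there is no net growth.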

What was measured:
Assay in all cases: NCI-60 cell line screen, 48 h
SF-268 CNS = system: SF-268 CNS
786-0 renal = system: 786-0 renal
HOP-92 NSCLC = system: HOP-92 NSCLC
IGROV1 ovarian = system: IGROV1 ovarian
NCI-H522 lung = system: NCI-H522 lung
A549 NSCLC = system: A549 NSCLC
HT29 colon = system: HT29 colon
MOLT-4 leukemia = system: MOLT-4 leukemia
M14 melanoma = system: M14 melanoma

| Structure (SMILES) | TGI (SF-268 CNS) | TGI (786-0 renal) | TGI (HOP-92 NSCLC) | TGI (IGROV1 ovarian) | TGI (NCI-H522 lung) | TGI (A549 NSCLC) | TGI (HT29 colon) | TGI (MOLT-4 leukemia) | TGI (M14 melanoma) | GI50 (SF-268 CNS) | GI50 (HOP-92 NSCLC) | GI50 (IGROV1 ovarian) | GI50 (NCI-H522 lung) | GI50 (M14 melanoma) | GI50 (A549 NSCLC) | GI50 (HT29 colon) | GI50 (MOLT-4 leukemia) |
| --- | --- | --- | --- | --- | --- | --- | --- | --- | --- | --- | --- | --- | --- | --- | --- | --- | --- |
| C=C(C)[C@H]1CC(=O)[C@@]2(C)C[C@H]3O[C@]3(C)CC/C=C(\C)CC[C@H]12 | > 100 µM | > 100 µM | > 100 µM | > 100 µM | > 100 µM | > 100 µM | > 100 µM | 60.9 µM |  |  |  |  |  |  |  |  |  |
| O=C(/C=C/c1cccc(Br)c1)N1CCN(CCOC(c2ccccc2)c2ccccc2)CC1 | > 100 µM | > 100 µM | 99.1 µM | > 100 µM | > 100 µM | > 100 µM | 81.5 µM | 30.8 µM | > 100 µM |  |  |  |  |  |  |  |  |
| O=C(CC(=O)N1N=C(N(c2ccccc2)c2ccccc2)CC1c1ccccc1)Nc1cccc(Cl)c1 (stereo unspecified) | > 100 µM | > 100 µM | > 100 µM | > 100 µM | > 100 µM | > 100 µM | > 100 µM | > 100 µM | > 100 µM |  |  |  |  |  |  |  |  |
| CN(C)NC1=NS(=O)(=O)c2cc3c(=O)n(C)[nH]c3cc2S1 | > 10 µM | > 10 µM | > 10 µM | > 10 µM | > 10 µM | > 10 µM | > 10 µM | > 10 µM | > 10 µM |  |  |  |  |  |  |  |  |
| CC(C)CC1N=C(OCc2ccccc2)OC1=O (stereo unspecified) | > 100 µM | > 100 µM | > 100 µM | > 100 µM | > 100 µM | > 100 µM | > 100 µM | > 100 µM | > 100 µM |  |  |  |  |  |  |  |  |
| CN1CCN(c2n[nH]c(=O)c3c2nnn3C2CCCCC2)CC1 | > 100 µM | > 100 µM | > 100 µM | > 100 µM | > 100 µM | > 100 µM | > 100 µM | > 100 µM | > 100 µM |  |  |  |  |  |  |  |  |
| Cc1cccc(N=N/C(=N\NC(=O)c2cc(Cl)ccc2O)c2ccc(N(CCC#N)CCC#N)cc2C)c1 | > 100 µM | > 100 µM | 60.7 µM | 43.6 µM | 72.6 µM | > 100 µM | 74 µM | 39.9 µM | > 100 µM |  |  |  |  |  |  |  |  |
| COc1cc(OC)c(/C=N\Nc2nc3ccccc3c(=O)n2-c2ccccc2)c(OC)c1 | > 100 µM | 37.6 µM | 64.3 µM | > 100 µM | > 100 µM | > 78.5 µM | 54.3 µM | 77.1 µM | 84.6 µM |  |  |  |  |  |  |  |  |
| CN(C)CC(C)(C)CN1c2ccccc2Sc2ccccc21 | 27.5 µM | 25.5 µM | 24.1 µM | 28.1 µM | 25.9 µM | 29.3 µM | 22.6 µM | 20.8 µM | 22.4 µM |  |  |  |  |  |  |  |  |
| Cn1c(=O)cc(Nc2ccc(N)cc2)[nH]c1=O | > 100 µM | > 100 µM | > 100 µM | > 100 µM | > 100 µM | > 100 µM | > 100 µM | > 100 µM | > 100 µM |  |  |  |  |  |  |  |  |
| NS(=O)(=O)c1ccc(NC(=O)c2ccc3nc4ccccc4c(Nc4ccc(S(N)(=O)=O)cc4)c3c2)cc1 | > 100 µM | > 100 µM | > 100 µM | > 100 µM | > 100 µM | > 100 µM | > 100 µM | > 100 µM | > 100 µM |  |  |  |  |  |  |  |  |
| C#CCNC(=O)CC[C@@H](C)[C@H]1CC[C@H]2[C@@H]3CC[C@@H]4CC(=O)CC[C@]4(C)[C@H]3CC[C@]12C | 44.4 µM |  | 10.3 µM | 3.13 µM | 16.6 µM | > 100 µM | 34.5 µM | 43.7 µM | 37.2 µM | 17.5 µM | 2.54 µM | 0.649 µM | 3.69 µM | 14.6 µM | 17.4 µM | 12.7 µM | 10.3 µM |
| c1ccc2c(c1)-c1ccccc1C2NC1=NCCO1 | > 100 µM | 84.5 µM | 36.3 µM | 40.3 µM | 51.4 µM | > 100 µM | 60.6 µM | > 100 µM | 32.5 µM |  |  |  |  |  |  |  |  |
| O=C(Nc1ccc(Cl)cc1)c1cc(S(=O)(=O)N2CCNNC2=O)c(S)cc1Cl | > 100 µM | > 100 µM | 96.1 µM | > 100 µM | > 100 µM | > 100 µM |  | > 100 µM | > 100 µM |  |  |  |  |  |  |  |  |
| N=c1oc2cc(O)ccc2cc1C(=O)Nc1cccc2ccccc12 | 57.2 µM | 17.3 µM | 14.5 µM | 14.4 µM | 7.47 µM | 23.2 µM | 26.9 µM | > 35.4 µM | 60 µM |  |  |  |  |  |  |  |  |
| C[C@@H]1CC[C@@]2(C)[C@H](C)/C(=C\COC(=O)/C=C/c3ccc(O)c(O)c3)CC[C@@]12C | 23.5 µM | 17.6 µM | 29.7 µM | 22.6 µM | 3.12 µM | 35.8 µM | 25.1 µM | 8.9 µM | 26.1 µM |  |  |  |  |  |  |  |  |
| O=C(NC(OCc1ccccc1)(C(F)(F)F)C(F)(F)F)OCc1ccccc1 | 32.2 µM | 30.1 µM | 27.8 µM | 28.6 µM | 26.5 µM | 28.5 µM | 32.2 µM | 38.6 µM | 33 µM |  |  |  |  |  |  |  |  |
| CCCCCCCCCCCCCCCC(=O)OC1C(O)C(O)C(O)C(O)C12CO2 (stereo unspecified) | > 100 µM | 41.9 µM | 56.1 µM | > 100 µM | > 100 µM | > 100 µM | > 100 µM | 42.7 µM | > 100 µM |  |  |  |  |  |  |  |  |
| O[C@@]12Cc3c([nH]c4ccccc34)[C@@H]3Oc4c(-c5ccccc5)ccc5c4[C@@]31CCN(CC1CC1)[C@@H]2C5 | 14.7 µM | 3.04 µM | 21.4 µM | 15 µM | 3.36 µM | 3.53 µM | 3.29 µM | 11 µM | 3.31 µM |  |  |  |  |  |  |  |  |
| CCOc1cc2c(cc1O)C(=O)C[C@@H]1[C@@H]2CC[C@]2(C)[C@@H](O)CC[C@@H]12 | > 95.4 µM | > 53.8 µM | > 100 µM | > 30.3 µM | 3.2 µM | > 100 µM | 29.9 µM | > 31.7 µM | > 38.9 µM |  |  |  |  |  |  |  |  |
| COc1ccc(/C=C/C(=O)CCN2CCN(CCC(=O)/C=C/c3ccc(OC)cc3)CC2)cc1 | 41.7 µM | 10.9 µM | 34.5 µM | 25.9 µM |  | 49.5 µM | 23.8 µM | > 100 µM | 32.5 µM |  |  |  |  |  |  |  |  |
| COC(=O)c1c2c(cc3c1CC1(C3)Cc3cc4c(c(C(=O)OC)c3C1)CCC4)CCC2 |  | > 100 µM | > 100 µM | > 100 µM | > 100 µM | > 100 µM | > 100 µM | > 100 µM | > 100 µM |  |  |  |  |  |  |  |  |
